In brackets after ≈: the same amount, converted by molar mass. Where a name gives a salt, the structure may show the parent alone. Read-outs that look alike come from different tables or passages of the source.
Key:
Type in all cases: cell-based
erythrocytes = test: Haemolytic activity of soluble samples
Protocol: Blood from three donors is mixed and centrifuged (10 min, 1000 g, 4° C.). The erythrocytes obtained are washed three times with NaCl solution (150 mmol·l^−1) and then used for experiments. Sample stock solutions are prepared in DMSO so that the final concentration of DMSO in NaCl is 0.5% (v/v). NaCl solution with the appropriate volume of DMSO serves as the negative control. 1% Triton-X100 is the positive control. The erythrocytes obtained are diluted to 2% with NaCl solution and pipetted into Eppendorf tubes (250 μl) with constant stirring. Samples and positive and negative controls are added to the erythrocytes prepared in this way and incubated (3 hours, 37° C.). The tubes are stirred during the incubation. After centrifugation (5 min, 1000 g), haemolytic activity is monitored by haemoglobin determination. The HC50 value is calculated from the measured absorbance values. The test is performed in triplets in three independent replicates. Iron Fe^2+ in haemoglobin is oxidized with potassium ferricyanide to iron Fe^3+ in methaemoglobin, which produces stable cyanomethaemoglobin with potassium cyanide, the concentration of which is determined spectrophotometrically. After the incubation of the erythrocytes with the substances, the cells are centrifuged (5 min, 1000 g), then Drabkin's solution (200 μl) is added to the supernatant (40 μl) and after incubation (10 min), the absorbance at 540 nm is measured.

[1] = tested on: Staphylococcus aureus 4591; test: MIC, microdilution method
Protocol: (§1) Disposable microtiter plates are used for testing. Samples are dissolved in infusion medium from brain and heart (BHI, HiMedia Laboraties Pvt. Ltd., Czech Republic) and Mueller-Hinton broth (HiMedia Laboraties, see above) to a final concentration ranging from 200 μg/ml to 1.5625 μg/ml. Plates are inoculated with a standard amount of test bacteria—the density of the inoculum in the well corresponds to 10^5-6 CFU/ml (colony forming units/ml, i.e. the number of viable bacterial cells/ml). MIC values are read after 24/48 hours of incubation at 37° C. as the minimum inhibitory concentration of the test substance at which bacterial growth is inhibited. The minimum bactericidal concentration (MBC) is characterized as the minimum concentration of the sample required to achieve irreversible inhibition, i.e. to kill the bacteria after a defined incubation period. MBC is determined by the inoculation method. Using an applicator, 10 μl from the well of a microtiter plate with a defined concentration of the test substance is taken to inoculate the surface of blood agar (Trios, Czech Republic). MBC is determined as the lowest concentration that inhibits the visible growth of the bacterium used on agar.

[2] = tested on: Enterococcus faecalis ATCC 29212 = CCM 4224; test: MIC, microdilution method
Protocol: as §1

Pseudomonas aeruginosa R = test: MIC, microdilution method
Protocol: as §1

[3] = tested on: Staphylococcus epidermidis CCM 7221; test: MIC, microdilution method
Protocol: as §1

[4] = tested on: Pseudomonas aeruginosa ATCC 27853 = CCM 3955; test: MIC, microdilution method
Protocol: as §1

[5] = tested on: Staphylococcus aureus ATCC 29213 = CCM 4223; test: MIC, microdilution method
Protocol: as §1

[6] = tested on: Escherichia coli ATCC 25922 = CCM 3954; test: MIC, microdilution method
Protocol: as §1

Enterobacter kobei 3683 = test: MIC, microdilution method
Protocol: as §1

Escherichia coli CE5556 = test: MIC, microdilution method
Protocol: as §1

[7] = tested on: Enterococcus faecium 419/ANA; test: MIC, microdilution method
Protocol: as §1

[8] = tested on: Candida albicans ATCC 90028 = CCM 8161; test: MIC, microdilution method
[9] = Staphylococcus epidermidis, CCM7221

Row | Molecule | HC50 ± SD (erythrocytes) | MIC ([1]; Staphylococcus aureus, 4591) | MIC ([2]; Enterococcus faecalis) | MIC (Pseudomonas aeruginosa R; Pseudomonas aeruginosa) | MIC [3, 9] | MIC ([4]; Pseudomonas aeruginosa) | MIC ([5]; Staphylococcus aureus) | MIC ([6]; Escherichia coli) | MIC (Enterobacter kobei 3683; Enterobacter kobei, 3683) | MIC (Escherichia coli CE5556; Escherichia coli, CE5556) | MIC ([7]; Enterococcus faecium, 419/ANA) | MIC ([8]; Candida albicans) | also measured
1 | Dihexyl tetradecan-1,14-diyl bis((2-(bis(3-aminopropyl)amino)ethyl)-phosphonate) tetrahydrochloride [Example 54] | >100 | – | – | – | – | – | – | – | – | – | – | – | MIC [1]: 1 µg/mL; MIC [2]: 8 µg/mL; MIC (Pseudomonas aeruginosa R; 24/48 hours at 37° C.): 8 µg/mL; MIC [3]: 0.5 µg/mL; MIC [4]: 8 µg/mL; MIC [5]: 1 µg/mL; MIC [6]: 4 µg/mL; MIC (Enterobacter kobei 3683): >128 µg/mL; MIC (Escherichia coli CE5556): 16 µg/mL; MIC [7]: 64 µg/mL; MIC [8]: 16 µg/mL
2 | CC(C)COP(=O)(CCN(CCCN)CCCN)OCCCCCCCCCCOP(=O)(CCN(CCCN)CCCN)OCC(C)C (stereo not drawn) [Example 40, Diisobutyl decane-1,10-diyl bis((2-(bis(3-aminopropyl)amino)ethyl)-phosphonate) hexahydrochloride] | >100 | 8 µg/mL | 128 µg/mL | > 128 µg/mL | 4 µg/mL | > 128 µg/mL | 16 µg/mL | > 128 µg/mL | > 128 µg/mL | > 128 µg/mL | > 128 µg/mL | 128 µg/mL | –
3 | NCCCN(CCCN)CCP(=O)(OCCCCCCCCCCCCOP(=O)(CCN(CCCN)CCCN)OCCc1ccccc1)OCCc1ccccc1 (stereo not drawn) [Example 50] | >100 | 1 µg/mL (≈ 1.17 µM) | 4 µg/mL (≈ 4.69 µM) | 2 µg/mL (≈ 2.34 µM) | 0.5 µg/mL (≈ 0.586 µM) | 4 µg/mL (≈ 4.69 µM) | 2 µg/mL (≈ 2.34 µM) | 16 µg/mL (≈ 18.8 µM) | 8 µg/mL (≈ 9.38 µM) | 2 µg/mL (≈ 2.34 µM) | 2 µg/mL (≈ 2.34 µM) | 4 µg/mL (≈ 4.69 µM) | –
4 | CCCCCCOP(=O)(CCN(CCN)CCN)OCCCCCCCCOP(=O)(CCN(CCN)CCN)OCCCCCC (stereo not drawn) [Example 55, Dihexyl octane-1,8-diyl bis((2-(bis(2-aminoethyl)amino)ethyl)phosphonate) hexahydrochloride] | >100 | 4 µg/mL | 128 µg/mL | 64 µg/mL | 2 µg/mL | 64 µg/mL | 2 µg/mL | > 128 µg/mL | > 128 µg/mL | > 128 µg/mL | > 128 µg/mL | 32 µg/mL | –
